Assay results published in ChEMBL document CHEMBL1141992, “Synthesis and radiopharmacological evaluation of 2'-(4-fluorophenyl)-21-[18F]fluoro-20-oxo-11beta,17alpha-dihydroxy-pregn-4-eno[3,2-c]pyrazole as potential glucocorticoid receptor ligand for positron emission tomography (PET)” (Bioorg Med Chem Lett, 2005).

Assays:
[1] = Radioactivity expressed as percent injected dose per gram after single intravenous injection of 50 uCi after 5 min in rat femur;n =4; assay type: ADME, tissue-based; conditions: in vivo
[2] = Radioactivity expressed as percent injected dose per gram after single intravenous injection of 50 uCi after 60 min in rat testis;n =4; assay type: ADME; conditions: in vivo, 1 h
[3] = Radioactivity expressed as percent injected dose per gram after single intravenous injection of 50 uCi after 5 min in rat hard glands;n =4; assay type: ADME; conditions: in vivo
[4] = Radioactivity expressed as percent injected dose per gram after single intravenous injection of 50 uCi after 5 min in rat spleen;n =4; assay type: ADME, tissue-based; conditions: in vivo
[5] = Radioactivity expressed as percent injected dose per gram after single intravenous injection of 50 uCi after 5 min in rat liver;n =4; assay type: ADME, tissue-based; conditions: in vivo
[6] = Radioactivity expressed as percent injected dose per gram after single intravenous injection of 50 uCi after 5 min in rat lung;n =4; assay type: ADME; conditions: in vivo
[7] = Radioactivity expressed as percent injected dose per gram after single intravenous injection of 50 uCi after 60 min in rat fat;n =4; assay type: ADME; conditions: in vivo, 1 h
[8] = Activity distribution of compound in blocked (hydrocortisone) rat brain inferior coliculi after single iv injection of 0.9 mCi at 60 min after injection by ex vivo autoradiography; assay type: ADME, organism-based; conditions: 1 h
[9] = Radioactivity expressed as percent injected dose per gram after single intravenous injection of 50 uCi after 5 min in rat adrenals;n =4; assay type: ADME, tissue-based, Adrenal gland; conditions: in vivo
[10] = Radioactivity expressed as percent injected dose per gram after single intravenous injection of 50 uCi after 5 min in rat kidney;n =4; assay type: ADME, tissue-based; conditions: in vivo
[11] = Radioactivity expressed as percent injected dose per gram after single intravenous injection of 50 uCi after 60 min in rat adrenals;n =4; assay type: ADME, tissue-based, Adrenal gland; conditions: in vivo, 1 h
[12] = Radioactivity expressed as percent injected dose per gram after single intravenous injection of 50 uCi after 60 min in rat muscle;n =4; assay type: ADME, tissue-based, Muscle tissue; conditions: in vivo, 1 h
[13] = Radioactivity expressed as percent injected dose per gram after single intravenous injection of 50 uCi after 5 min in rat pancreas;n =4; assay type: ADME; conditions: in vivo
[14] = Radioactivity expressed as percent injected dose per gram after single intravenous injection of 50 uCi after 60 min in rat lung;n =4; assay type: ADME; conditions: in vivo, 1 h
[15] = Radioactivity expressed as percent injected dose per gram after single intravenous injection of 50 uCi after 5 min in rat brown fat;n =4; assay type: ADME; conditions: in vivo
[16] = Radioactivity expressed as percent injected dose per gram after single intravenous injection of 50 uCi after 60 min in rat heart;n =4; assay type: ADME; conditions: in vivo, 1 h
[17] = Radioactivity expressed as percent injected dose per gram after single intravenous injection of 50 uCi after 5 min in rat brain;n =4; assay type: ADME, tissue-based; conditions: in vivo
[18] = Radioactivity expressed as percent injected dose per gram after single intravenous injection of 50 uCi after 5 min in rat fat;n =4; assay type: ADME; conditions: in vivo
[19] = Radioactivity expressed as percent injected dose per gram after single intravenous injection of 50 uCi after 60 min in rat blood;n =4; assay type: ADME; conditions: in vivo, 1 h
[20] = Radioactivity expressed as percent injected dose per gram after single intravenous injection of 50 uCi after 60 min in rat thymus;n =4; assay type: ADME; conditions: in vivo, 1 h
[21] = Radioactivity expressed as percent injected dose per gram after single intravenous injection of 50 uCi after 60 min in rat liver;n =4; assay type: ADME, tissue-based; conditions: in vivo, 1 h
[22] = Radioactivity expressed as percent injected dose per gram after single intravenous injection of 50 uCi after 60 min in rat pancreas;n =4; assay type: ADME; conditions: in vivo, 1 h
[23] = Radioactivity expressed as percent injected dose per gram after single intravenous injection of 50 uCi after 60 min in rat hard glands;n =4; assay type: ADME; conditions: in vivo, 1 h
[24] = Radioactivity expressed as percent injected dose per gram after single intravenous injection of 50 uCi after 5 min in rat testis;n =4; assay type: ADME; conditions: in vivo
[25] = Radioactivity expressed as percent injected dose per gram after single intravenous injection of 50 uCi after 5 min in rat thymus;n =4; assay type: ADME; conditions: in vivo
[26] = Radioactivity expressed as percent injected dose per gram after single intravenous injection of 50 uCi after 5 min in rat blood;n =4; assay type: ADME; conditions: in vivo
[27] = Radioactivity expressed as percent injected dose per gram after single intravenous injection of 50 uCi after 60 min in rat brain;n =4; assay type: ADME, tissue-based; conditions: in vivo, 1 h
[28] = Radioactivity expressed as percent injected dose per gram after single intravenous injection of 50 uCi after 60 min in rat pituitary;n =4; assay type: ADME; conditions: in vivo, 1 h
[29] = Activity distribution of compound in blocked (hydrocortisone) rat brain pituitary after single iv injection of 0.9 mCi at 60 min after injection by ex vivo autoradiography; assay type: ADME, organism-based; conditions: 1 h
[30] = Activity distribution of compound in blocked (hydrocortisone) rat brain plexus choroideus after single iv injection of 0.9 mCi at 60 min after injection by ex vivo autoradiography; assay type: ADME, organism-based; conditions: 1 h
[31] = Radioactivity expressed as percent injected dose per gram after single intravenous injection of 50 uCi after 60 min in rat spleen;n =4; assay type: ADME, tissue-based; conditions: in vivo, 1 h
[32] = Activity distribution of compound in blocked (hydrocortisone) rat brain cerebellar nuclei after single iv injection of 0.9 mCi at 60 min after injection by ex vivo autoradiography; assay type: ADME, organism-based; conditions: 1 h
[33] = Radioactivity expressed as percent injected dose per gram after single intravenous injection of 50 uCi after 60 min in rat femur;n =4; assay type: ADME, tissue-based; conditions: in vivo, 1 h
[34] = Activity distribution of compound in blocked (hydrocortisone) rat brain hippocampus after single iv injection of 0.9 mCi at 60 min after injection by ex vivo autoradiography; assay type: ADME, organism-based; conditions: 1 h
[35] = Radioactivity expressed as percent injected dose per gram after single intravenous injection of 50 uCi after 5 min in rat heart;n =4; assay type: ADME; conditions: in vivo
[36] = Radioactivity expressed as percent injected dose per gram after single intravenous injection of 50 uCi after 5 min in rat pituitary;n =4; assay type: ADME; conditions: in vivo
[37] = Radioactivity expressed as percent injected dose per gram after single intravenous injection of 50 uCi after 60 min in rat brown fat;n =4; assay type: ADME; conditions: in vivo, 1 h
[38] = Radioactivity expressed as percent injected dose per gram after single intravenous injection of 50 uCi after 60 min in rat kidney;n =4; assay type: ADME, tissue-based; conditions: in vivo, 1 h
[39] = Activity distribution of compound in blocked (hydrocortisone) rat brain cortex after single iv injection of 0.9 mCi at 60 min after injection by ex vivo autoradiography; assay type: ADME, organism-based; conditions: 1 h
[40] = Radioactivity expressed as percent injected dose per gram after single intravenous injection of 50 uCi after 5 min in rat muscle;n =4; assay type: ADME, tissue-based, Muscle tissue; conditions: in vivo

An ID/g [1] of 0.34%, an ID/g [2] of 0.07% and an ID/g [3] of 1.09% were found for `C[C@]12Cc3cnn(-c4ccc(F)cc4)c3C=C1CCC1C2[C@@H](O)C[C@@]2(C)C1CC[C@]2(O)C(=O)C[18F]` (stereo not given in full) in this work. For the same molecule, the ID/g [4] was 0.4%, the ID/g [5] was 1.3% and the ID/g [6] was 0.6%. It also gave an ID/g [7] of 0.31%, an ID/g [8] of 0.89% and an ID/g [9] of 1.23%. For the same molecule, the ID/g [10] was 0.66%, the ID/g [11] was 1.96% and the ID/g [12] was 0.32%. The ID/g [13] was 0.85%, the ID/g [14] was 0.66% and the ID/g [15] was 0.8%. For the same molecule, the ID/g [16] was 0.66%, the ID/g [17] was 0.26% and the ID/g [18] was 0.82%. The ID/g [19] was 0.08%, the ID/g [20] was 0.4% and the ID/g [21] was 2.15%. It also gave an ID/g [22] of 0.85%, an ID/g [23] of 0.55% and an ID/g [24] of 0.18%. The ID/g [25] was 0.37%, the ID/g [26] was 0.06% and the ID/g [27] was 0.25%. For the same molecule, the ID/g [28] was 0.82%, the ID/g [29] was 1.36% and the ID/g [30] was 0.83%. It also gave an ID/g [31] of 0.44%, an ID/g [32] of 0.94% and an ID/g [33] of 0.22%. The ID/g [34] was 0.59%, the ID/g [35] was 0.63% and the ID/g [36] was 0.52%. The ID/g [37] was 0.91%, the ID/g [38] was 0.87% and the ID/g [39] was 0.7%. It also gave an ID/g [40] of 0.31%.
